Measured values from US10420770B2, “Compositions and methods for treating dementia” (EIP Pharma, LLC, priority 2016, dated 2019).
“And” between values parts separate entries of the source, which are not always exact repeats. Identical values can stand only once.

Assays:
[1] = system: patients with mild cognitive impairment (MCI) due to Alzheimer's disease (AD) or with mild AD; test: Wechsler Memory Scale (WMS) immediate and delayed recall, 12-week study (Example 1); type: in vivo, human; conditions: for patients with improvement from baseline, WMS delayed recall composite score / patients with improvement from baseline, WMS immediate recall composite score: day 84
Description: In this study, episodic memory was evaluated using the Dutch version of the WMS scale utilizing both verbal and visual information: Logical Memory (LM I & II) test, in which subject is read a story; Verbal-Paired Associates (VPA I & II), in which subject is given pairs of words and asked remember which words go together; and Visual Reproduction (VR I & II)), in which subject is given drawings of specific shapes. Subjects were then asked to recall the information within each test both in an immediate (WMS-Immediate Recall composite) and delayed (WMS-Delayed Recall composite) basis. The total score of the WMS-Immediate Recall component could range from 0 to 136 (0-53 for LMI; 0-40 for VPA I, and 0-43 VR I) and for the WMS-Delayed Recall from 0 to 92 (0-39 for LM II; 0-10 for VPA II, and 0-43 VR II).
Further analysis included Wechsler Memory Scale (WMS) Analyses. The WMS includes three subcategories: immediate recall, delayed recall, and symbol span, each with distinct assessments. Results can be analyzed as two distinct composites scores or as an overall composite score. This evaluation included the overall (score range: 0 to 401), immediate recall (score range: 0 to 136), and delayed recall (score range: 0 to 92) composite scores; the latter two are considered measures of episodic memory. In addition, the Symbol Span sub-component of WMS was analyzed separately (score range: 0 to 50). In all cases, higher scores reflect better cognitive performance.

[2] = system: brain-derived neurotrophic factor (BDNF); test: Plasma BDNF levels by Somascan, 12-week study; type: in vivo, human; conditions: baseline vs after 84 days; n=10 subjects
Description: FIG. 15 depicts plasma brain-derived neurotrophic, factor (BDNF) levels at baseline and after 84 days (n=10 subjects). BDNF levels were measured by Somascan®.

[3] = Brain versus blood exposure in animals (preclinical PK); type: in vivo; conditions: brain relative to peripheral blood, read-out: exposure in the brains of animals relative to peripheral blood
[4] = Plasma and CSF pharmacokinetics, 6-week Phase IIa study (Example 2); type: in vivo, human
Description: Investigators and patients were blinded to the dosage strength. The first 3 patients were randomly assigned to receive either 40 or 125 mg twice daily, with dosing level blinded. The remaining patients (up to 7 patients) received 40 mg twice daily on an open-label basis. […] Patients were instructed to eat a meal approximately 30 minutes before dosing with VX 745 with each dose taken approximately 12 hours (+/−3 hours) apart at the same times each day throughout the study.
(§1) Quantitative EEG was conducted as a measure of the effects of inflammatory cytokines on synaptic function and the effects of modulation of p38 MAPK on synaptic plasticity. Brain fluorodeoxyglucose (FDG) PET scan was conducted at the Screening Visit and Day 40 to measure brain metabolism. In addition, CSF drug levels of VX-745 were obtained to confirm delivery of drug to the brain.

[5] = system: interleukin-8 (IL-8); test: CSF cytokine measurement (Mesoscale Discovery), IL-8, 6-week study; type: in vivo, human; conditions: high exposure group by plasma AUC(0-8) on Day 1
Description: Cytokine measurements of CSF samples were done to assess the balance of pro-inflammatory versus anti-inflammatory cytokines. The t-helper type 1/t-helper type 2 (TH1/TH2) multiplex cytokine (IFN-γ, IL-1β, IL-2, IL-4, IL-5, IL-8, IL-10, IL-12p70, IL-13, TNFα ) panel by Mescoscale Discovery were utilized to inform on effects on the relative balance of pro-inflammatory cytokines (e.g. IL-1β, TNFα) versus anti-inflammatory cytokines (e.g., IL-10).
(§2) Target engagement was assessed through the evaluation of the effect of drug treatment on CSF biomarkers. CSF was collected at 6 time-points over 24 hours at baseline (the 24 hours prior to first dose) and again at 6 time-points over 24 hours near the end of treatment on Day 40. The samples were evaluated by the Mesoscale Discovery ELISA platform for multiple cytokines ((IFN-γ, IL-1β, IL-2, IL-4, IL-5, IL-8, IL-12 protein 70, IL-13, TNFα, and CSF) and for amyloid-beta peptides (Aβ 38/40/42).

[6] = system: amyloid-beta peptides (Aβ 38/40/42); test: CSF amyloid-beta peptides, 6-week study; type: in vivo, human; conditions: baseline to Day 41; p=0.01 to p=0.047
Description: Effects on CSF levels of Aβ peptides were evaluated as measures of the amyloidenic process, which is activated with aging and more so in patients with Alzheimer's disease.
as §2

[7] = system: synaptic function; test: Quantitative EEG, 6-week study; type: in vivo, human
Description: as §1

[8] = system: DS (Down's Syndrome) human fibroblasts; test: EEA1-labeled early endosomes in Down's Syndrome human fibroblasts (Example 4); type: cell-based; conditions: 0, 1, 10, or 50 nM VX-745 for 24 hours
Description: Down's Syndrome (DS, Trisomy 21) derived human fibroblasts provide a robust system for studying Alzheimer's related endosomal dysfunction as one of the Familial Alzheimer's disease (FAD) genes, Amyloid Precursor Protein (APP), is expressed on chromosome 21 and as a result inherently DS individuals overexpress APP and develop an Alzheimer's type dementia as they grow older beyond age 40 (Jiang, Y, et. al., “Alzheimer's-related endosome dysfunction in Down syndrome is Aβ-independent but requires APP and is reversed by BACE-1 inhibition,” PNAS 107:1630-1635 (2010)).
In vitro, DS human fibroblasts show increased numbers and enlarged early endosomes by electron microscopy or by fluorescence staining with antibodies to EEA1 (Early Endosome Antigen 1). […] After incubation, the cells were fixed and incubated with anti-EEA1 antibody to label early endosomes.

[9] = Example 1 study (N = 15), Wechsler Memory Scale

Compound: O=c1ncn2nc(Sc3ccc(F)cc3F)ccc2c1-c1c(Cl)cccc1Cl [VX-745]
- patients with improvement from baseline, WMS delayed recall composite score ([1]; 40 mg group): 8 of 8
- patients with improvement from baseline, WMS immediate recall composite score ([1]; 40 mg group): 7 of 8
- patients with improvement from baseline, WMS delayed recall composite score ([1]; 125 mg group): 6 of 7
- patients with improvement from baseline, WMS immediate recall composite score ([1]; 125 mg group): 6 of 7
- change in all subcomponents of WMS episodic memory composites ([1]; Day 84): statistically significant (P<0.05) increases
- Mean WMS delayed recall composite score ([1]; Day 84, combined doses, baseline 13.2 (±2.3), p<0.001): 22.1 (±4.1)
- Mean WMS immediate recall composite score ([1]; Day 84, n=15 combined doses, baseline 48.4 (±3.8), p=0.005): 58.4 (±4.3)
- Calculated within-subject treatment effect size (Cohen's d), Delayed Recall [1, 9]: .69
- Calculated within-subject treatment effect size (Cohen's d), Immediate Recall [1, 9]: .59
- WMS immediate and delayed recall, cognitive analysis ([1]; nearly all patients, regardless of effect on amyloid plaque): dose dependent improvement
- plasma BDNF levels [2]: increases plasma BDNF levels
- Kp [3]: ~1.7
- average blood drug concentration (CAVG) ([4]; 40 mg twice daily): 8 ng/mL
- expected VX-745 concentrations in the brain ([4]; extrapolated from CSF/plasma and preclinical data): ~14 ng/mL and ~30 nM
- Kp ([4]; human, CSF relative to plasma, oral, same time point, read-out: CSF drug levels as share of plasma drug levels): 0.06
- half-life ([4]; human, oral, 6-week study plasma PK, read-out: terminal half-life (converted)): 10 h
- Cmax ([4]; human, plasma, oral, 40 mg twice daily): 23 ng/mL
- CSF IL-8, Day 41 vs baseline at matched time points [5]: trend towards lower CSF IL-8
- correlation between plasma drug concentration and increases in CSF Aβ 38/40/42 levels [6]: statistically significant correlation
- EEG [7]: potential positive pharmacodynamics effect
- average number of EEA1-labeled endosomes per DS cell [8]: significantly reduced
- average size of EEA1-labeled endosomes in DS cells [8]: significantly reduced
